# Results published in the supplement of paper PMC6004109.
# What was measured:
# Conditions in all cases: temperature: 37 °C
# [1] = test system: Saccharomyces cerevisiae ZIM 2566 (RPMI); test: FICI minimum (fractional inhibitory concentration index, Loewe) (dimensionless); higher = less synergy / more antagonism
# How it was run: (§1)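 The values are the minimum or maximum Loewe fractional inhibitory concentration index over the combination surface, each the sum of MIC-combination/MIC-alone ratios. The MIC was MIC50 or MIC90, depending on the drug. Plates followed CLSI M27-A3 checkerboard broth microdilution, using RPMI for clinical isolates and YPD for C. glabrata ATCC 2001 and its derived strain, with 100 µl of 3–5 × 10^3 cells/ml added to 100 µl of drug dilutions. After 48 h at 37 °C, background-subtracted OD600 was read, with at least biological triplicates.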
# [2] = test system: Saccharomyces cerevisiae ZIM 2558 (RPMI); test: as above
# How it was run: as §1
# [3] = test system: Candida glabrata ZIM 2369 (RPMI); test: Bliss independence sum of statistically significant ΔE (measured minus predicted growth inhibition) over checkerboard surface (fraction (sum of ΔE; 1 = 100%)); higher = more synergy
# [4] = test system: Saccharomyces cerevisiae ZIM 2260 (RPMI); test: as above
# [5] = test system: Candida glabrata ZIM 2389 (RPMI); test: as above
# [6] = test system: Saccharomyces cerevisiae ZIM 2566 (RPMI); test: as above
# [7] = test system: Candida glabrata ZIM 2344 (RPMI); test: as above
# [8] = test system: Saccharomyces cerevisiae ZIM 2269 (RPMI); test: as above
# [9] = test system: Candida glabrata ZIM 2385 (RPMI); test: as above
# [10] = test system: Saccharomyces cerevisiae ZIM 2255 (RPMI); test: as above
# [11] = test system: Saccharomyces cerevisiae ZIM 2558 (RPMI); test: as above
# [12] = test system: Candida glabrata ZIM 2365 (RPMI); test: as above
# [13] = test system: Saccharomyces cerevisiae ZIM 2247 (RPMI); test: as above
# [14] = test system: Candida glabrata ZIM 2382 (RPMI); test: as above
# [15] = test system: Candida glabrata ZIM 2369 (RPMI); test: FICI maximum (fractional inhibitory concentration index, Loewe) (dimensionless); higher = less synergy / more antagonism
# How it was run: as §1
# [16] = test system: Saccharomyces cerevisiae ZIM 2260 (RPMI); test: as above
# How it was run: as §1
# [17] = test system: Candida glabrata ZIM 2389 (RPMI); test: as above
# How it was run: as §1
# [18] = test system: Saccharomyces cerevisiae ZIM 2566 (RPMI); test: as above
# How it was run: as §1
# [19] = test system: Candida glabrata ZIM 2344 (RPMI); test: as above
# How it was run: as §1
# [20] = test system: Saccharomyces cerevisiae ZIM 2269 (RPMI); test: as above
# How it was run: as §1
# [21] = test system: Candida glabrata ZIM 2385 (RPMI); test: as above
# How it was run: as §1
# [22] = test system: Saccharomyces cerevisiae ZIM 2255 (RPMI); test: as above
# How it was run: as §1
# [23] = test system: Saccharomyces cerevisiae ZIM 2558 (RPMI); test: as above
# How it was run: as §1
# [24] = test system: Candida glabrata ZIM 2365 (RPMI); test: as above
# How it was run: as §1
# [25] = test system: Saccharomyces cerevisiae ZIM 2247 (RPMI); test: as above
# How it was run: as §1
# [26] = test system: Candida glabrata ZIM 2382 (RPMI); test: as above
# How it was run: as §1
Structure (SMILES),FICI minimum [1],FICI minimum [2],Bliss independence sum [3],Bliss independence sum [4],Bliss independence sum [5],Bliss independence sum [6],Bliss independence sum [7],Bliss independence sum [8],Bliss independence sum [9],Bliss independence sum [10],Bliss independence sum [11],Bliss independence sum [12],Bliss independence sum [13],Bliss independence sum [14],FICI maximum [15],FICI maximum [16],FICI maximum [17],FICI maximum [18],FICI maximum [19],FICI maximum [20],FICI maximum [21],FICI maximum [22],FICI maximum [23],FICI maximum [24],FICI maximum [25],FICI maximum [26]
C=CC[C@@H]1/C=C(\C)C[C@H](C)C[C@H](OC)[C@H]2O[C@@](O)(C(=O)C(=O)N3CCCC[C@H]3C(=O)O[C@H](/C(C)=C/[C@@H]3CC[C@@H](O)[C@H](OC)C3)[C@H](C)[C@@H](O)CC1=O)[C@H](C)C[C@@H]2OC [tacrolimus] + C[C@@H]1[C@H](O)[C@@H](C)/C=C/C=C/C=C/C=C/C=C/C=C/C=C/[C@H](O[C@@H]2O[C@H](C)[C@@H](O)[C@H](N)[C@@H]2O)C[C@@H]2O[C@](O)(C[C@@H](O)C[C@@H](O)[C@H](O)CC[C@@H](O)C[C@@H](O)CC(=O)O[C@H]1C)C[C@H](O)[C@H]2C(=O)O [amphotericin B],0.25,0.252,4.67,9.87,0.693,8.22,7.88,19.1,7.14,11.4,9.97,2.51,20.9,0.265,1.25,0.5,1,0.625,1,0.501,1,0.508,0.501,0.51,0.126,1.01
C=CC[C@@H]1/C=C(\C)C[C@H](C)C[C@H](OC)[C@H]2O[C@@](O)(C(=O)C(=O)N3CCCC[C@H]3C(=O)O[C@H](/C(C)=C/[C@@H]3CC[C@@H](O)[C@H](OC)C3)[C@H](C)[C@@H](O)CC1=O)[C@H](C)C[C@@H]2OC [tacrolimus] + OC(Cn1cncn1)(Cn1cncn1)c1ccc(F)cc1F [fluconazole],0.135,0.135,1.98,6.04,8,0.935,4.23,8.35,5.34,2.75,1.84,2.21,8.81,1.68,1,1,1,1,0.5,1,1.01,1,1,1,1,0.5
